Source: patent US20250367151A1, “ANTI-VWF THERAPEUTIC FOR PREVENTING ARTERIAL THROMBI” (GEORGIA TECH RESEARCH CORPORATION, priority 2022, published 2025)
“Also recorded” adds a separate entry of the source. Where two headings read alike, the source gives them in different places.

Tests used:
tail bleeding in mice [1] = conditions: mice treated with ASA, previously seen (Decouture et al. 2019); cited from earlier work
human whole blood [2] = assay: Occlusion time in a stenotic microfluidic model of arterial thrombosis; assay type: cell-based; conditions: for Average occlusion time: 30 min incubation, shear ~7,500 s-1, untreated 124 s; for Occlusion time, weak NAC responders: 0 mM 112 s; for Occlusion time, strong NAC responders: 0 mM 136 s
Text: Microfluidic tests were run using a microfluidic system previously described (Griffin M T, et al. Inhibition of high shear arterial thrombosis by charged nanoparticles. Biomicrofluidics 2018;12). The chip contains a single inlet split into four outlet channels 475 μm wide and 250 μm tall. Within each outlet channel is a stenotic region 800 μm long where the height decreases to 70 μm. Flow is controlled using a hydraulic pressure head created by a raised reservoir connected to the inlet which generates an initial shear rate of ˜7,500 s-1 in the stenotic region. Channels are coated overnight with 100 μg/mL collagen Type I (Chrono-Log Corp) in 0.9% saline. Blood is filtered with a 37 μm nylon mesh immediately prior to testing to prevent debris from entering the chip.
(§1) For each chip, the mass flow rate of each outlet channel and brightfield images of two stenotic regions were acquired. Mass flow rates for each channel were measured using four mass balances (Ohaus Scout) connected to the device outlets. Occlusion time was defined as the difference between the time blood enters the stenosis region of the microfluidic device and the time when the mass balances register their peak mass. A brightfield, upright microscope (Leica DM6000B) was used in conjunction with a CCD camera (Pixelfly, PCO) to image the stenotic regions of the middle two channels as the occlusive thrombus formed. Images were taken once per second with a 40× magnification. These images were later thresholded into black and white images to identify platelet rich thrombi from the background blood (ImageJ). Average platelet intensity is defined as the average B/W value of the stenosis region. A value of 0 represents a clean channel with no platelets and increasing values indicate platelet accumulation.
(§2) Occlusion times for each concentration were tested using an unpaired Student's t-test. For survival curves, each possible combinations of pairs of concentrations were tested using a log-rank test. Visual measurement of platelet intensities for each concentration were compared using a Mann-Whitney U test. Statistical significance was determined by p<0.05.
Blood was collected from 10 healthy adult volunteers. Subjects were recruited in accordance with Georgia Institute of Technology's Institutional Review Board Guidelines (IRB #17315). Subjects with known bleeding disorders, a history of anti-platelet medications within 10 days of donation, anemia or transmittable blood disease were excluded from the study. Standard phlebotomy techniques were used to obtain blood. Briefly, 60 mL of blood was drawn slowly through a 21 G needle into a 60 ml syringe containing 0.21 mL of a 1000 USP/mL solution of heparin sodium (Fisher Scientific) in PBS to achieve a heparin concentration of […] in the collected blood. Complete Blood Counts (CBCs) were also performed on all donor samples. All tests were run within 4 hours of the blood draw.
(§3) N-acetyl cysteine was added to blood to create final concentrations of 3 mM, 5 mM and 10 mM. For each human subject, a fresh solution of concentrated NAC (Sigma Aldrich) was created in PBS and neutralized to a pH of 7 with NaOH. The concentrated NAC solution was then diluted so that the same volume of NAC solutions was added to each sample. Negative control (OmM) samples were similarly diluted with 0.5 mL of PBS in 15 mL blood. In three individuals, additional experiments were performed at concentrations of 7.5 mM, 20 mM and 40 mM. For all experiments, NAC was allowed to incubate in the blood at room temperature on a shaker for 30 minutes prior to testing.
To test the effect of N-acetylcysteine on reducing arterial thrombosis in human blood, whole blood was perfused collected from 10 healthy human subjects through a stenotic microfluidic channel coated with type I collagen. A constant pressure head of 16 mmHg was formed using an elevated upstream reservoir to create shear rates of ˜7,500 s-1 in the stenotic region and ˜800 s-1 in the rest of the channel. […]

[3] = Zhou et al. 2015; cited from earlier work
[4] = tested on: platelet aggregation in human whole blood; assay: Brightfield platelet intensity (lag time, rapid platelet accumulation rate) in the microfluidic model; assay type: cell-based
Protocol: as §1, §2, §3
Brightfield measurements of platelet aggregation were used to establish whether the increase in occlusion time observed in 3 mM and 5 mM cases is primarily due to effects on initial platelet attachment (lag time) or the platelet accumulation rate (RPA). Lag time is defined as the time required for the average platelet intensity measurements to increase to 1% of their maximal value. Average lag times for 0 mM, 3 mM, 5 mM NAC experiments are 49 s, 65 s and 107 s, respectively. The small increases in lag time for 3 mM and 5 mM treatments cannot account for the 125-325 s increases in occlusion time seen in the 3 mM and 5 mM conditions. This is instead explained by a decrease in the rapid platelet accumulation rate, defined as the slope of the platelet intensity graph (FIG. 2B). […] The slope of the platelet intensity curve decreases as NAC concentration increases, with 10 mM NAC having a negligible slope. When the RPA rate for each individual is normalized to the individual's control RPA rate, the platelet aggregation rates for 3 mM, 5 mM and 10 mM are 0.66, 0.38 and −0.12, respectively (FIG. 2D, p<0.01 compared to control for all conditions). The small negative aggregation rate for 10 mM is an artifact caused by mixing of blood and PBS at the interface between the priming solution and the sample.

tail bleeding in mice [5] = assay: Tail bleeding model; assay type: in vivo, mouse; conditions: 400 mg/kg NAC; PBS 2.35 minutes, p=0.14
Protocol: Bleeding times were assessed using the tail bleeding model described previously (Liu Y, Standardizing a simpler, more sensitive and accurate tail bleeding assay in mice. World J Exp Med. 2012;2:30). Briefly, mice were anesthetized and the distal 3 mm segment of the tail was transected and placed in a vial of warm saline. The injuries were monitored visually to determine the time it took for bleeding to cease.

[6] = Olsson et al. 1988; cited from earlier work
[7] = tested on: occlusive thrombi in common carotid artery of C57 mice; assay: Murine modified-Folts model of arterial thrombosis (carotid stenosis and crush injury); assay type: in vivo, mouse; conditions: 200 mg/kg NAC 6 hrs prior and immediately prior to crush injury
[8] = Elimination of NAC from mouse plasma (literature); assay type: in vivo; conditions: calculated from half-life of 34 minutes
[9] = tested on: occlusive thrombi in common carotid artery of C57 mice; assay: Murine modified-Folts model of arterial thrombosis (carotid stenosis and crush injury); assay type: in vivo, mouse
Protocol: Formation of occlusive thrombi was measured using a murine Modified-Folts model (Kim D A, et al. Platelet α-granules are required for occlusive high-shear-rate thrombosis. Blood Adv. 2020;4:3258-3267). C57 mice were used under conditions approved by the university animal use and care committees. Following isolation of the common carotid artery, blood flow through the vessel was measured with a flow probe (Transonic Systems). A 6.0 silk suture was then tied around the vessel and tightened until the measured flow rate was approximately 50% of the initial value. This creates a stenosis region with high shear-rate at the apex. The artery is then crushed with forceps to damage the endothelial cells and expose collagen in the extracellular matrix.
In single injection experiments, 13 mice were treated with either 200 mg/kg NAC, 400 mg/kg NAC, or PBS. 100 μL of freshly prepared, neutralized NAC solution or vehicle was I.V. injected approximately 45 minutes prior to the crush injury.
For repeat injection experiments, mice were given either PBS, 200 mg/kg, or 400 mg/kg NAC through a 100 μL I.V. injection 6 hr prior to surgery. Mice were then given a second injection of PBS, 200 mg/kg, or 400 mg/kg NAC approximately 45 minutes prior to the crush injury. Additionally, 4 mice were given a dose of 400 mg/kg NAC through an 100 μL injection 6 hr prior to the surgery, followed by a second injection of PBS immediately prior to the crush injury.
Blood flow measurements were taken with a Transonic flow probe and acquired with Powerlab software (ADInstruments) (Id.). Time to initial occlusion is defined as the time between the crush injury and the first point where flow reaches approximately 0. After occlusion, if flow remains around 0 then the occlusion is characterized as stable. If instead the thrombus detaches and flow increases, the clot is labelled an unstable occlusion.
Statistical significance in time to initial occlusion was determined using unpaired student t-test (p <0.05). Differences in thrombus stability are determined using a Pearson's Chi-squared test (p <0.05).

human whole blood [10] = assay: VWF recovery experiment in 10 mM NAC treated blood, microfluidic system; assay type: cell-based
Protocol: VWF recovery experiments were performed using 3 individual's 10 mM NAC samples prepped as detailed above. 19 IU/mL of VWF (Humate) was added to these samples and they were immediately perfused through the microfluidic system. Occlusion times and platelet intensities were measured as above.
To test if the NAC prevented arterial thrombosis by modifying VWF as hypothesized, new VWF was added to blood samples treated with 10 mM NAC. […] Although OTs of the recovery samples were higher than the control, the average RPA rates for the control and recovery conditions were similar. By shifting the control curve right, simulating a 76 s increase in lag time, the two curves show a high degree of concordance (FIG. 9).

[11] = two doses of 400 mg/kg NAC 6 hrs apart

For `CC(=O)Oc1ccccc1C(=O)O` [ASA], the Average bleeding time (tail bleeding in mice [1]) is given as 5.72 min.

With `CC(=O)N[C@@H](CS)C(=O)O` [NAC, N-acetylcysteine] the Average occlusion time (human whole blood [2]; 3 mM NAC) was 255 s, the “Occlusion time, weak NAC responders” value (human whole blood [2]; 3 mM NAC) was 182 s and the “Occlusion time, strong NAC responders” value (human whole blood [2]; 3 mM NAC) was 328 s. The “Increase in occlusion time” value (human whole blood [2]; 3 mM and 5 mM conditions vs control) was 125 to 325 s, the Average occlusion time (human whole blood [2]; 5 mM NAC) was 458 s and the “Occlusion time, weak NAC responders” value (human whole blood [2]; 5 mM NAC) was 220 s. The “Occlusion time, strong NAC responders” value (human whole blood [2]; 5 mM NAC) was 695 s, the “Samples not occluding within the time limit of the experiment” value (human whole blood [2]; 7.5 mM NAC, 3 individuals, 1000 s window) was roughly 64% and the Occlusion outcome (human whole blood [2]; 7.5 mM NAC, 1000 s window) was “results were mixed”. For the same compound, the Occlusion outcome (human whole blood [2]; 20 mM NAC) was “did not occlude”, the Occlusion outcome (human whole blood [2]; 40 mM NAC) was “did not occlude” and the “Inflection point of 4-parameter logistic fit of occlusion time vs NAC dose” value (human whole blood [2]; r^2 = 0.782) was 5.6545 mM. The “Logistic growth rate of 4-parameter logistic fit of occlusion time” value (human whole blood [2]; r^2 = 0.782) was 0.7145, the “Lower asymptote of 4-parameter logistic fit of occlusion time” value (human whole blood [2]; r^2 = 0.782) was 118.5 s and the “Upper asymptote of 4-parameter logistic fit of occlusion time” value (human whole blood [2]; r^2 = 0.782) was 1028.4 s. The “Estimated elimination half-life in mouse plasma” value [3] was 34 min, the “Platelet aggregation (RPA) rate normalized to the individual's control RPA rate” value ([4]; 3 mM NAC) was 0.66 and the “Reduction of the maximum growth rate of thrombi” value ([4]; 3 mM NAC) was 30%. For the same compound, the “Average lag time (time to 1% of maximal platelet intensity)” value ([4]; 3 mM NAC, 0 mM 49 s) was 65 s, the “Platelet aggregation (RPA) rate normalized to the individual's control RPA rate” value ([4]; 5 mM NAC) was 0.38 and the “Reduction of the maximum growth rate of thrombi” value ([4]; 5 mM NAC) was 60%. The “Average lag time (time to 1% of maximal platelet intensity)” value ([4]; 5 mM NAC, 0 mM 49 s) was 107 s, the Visible platelet aggregation ([4]; 10 mM NAC, 1000 s of the experiment) was “no visible aggregation of platelets” and the “Lag time (time to 1% of maximal platelet intensity)” value ([4]; 10 mM NAC, 0 mM 49 s) was 910 s. For the same compound, the “Platelet aggregation (RPA) rate normalized to the individual's control RPA rate” value ([4]; 10 mM NAC, small negative value said to be an artifact) was −0.12, the Visible platelet aggregation ([4]; 20 mM NAC) was “no visible platelet aggregation” and the Visible platelet aggregation ([4]; 40 mM NAC) was “no visible platelet aggregation”. For the same compound, the Visible platelet aggregation ([4]; NAC concentrations over 10 mM) was “no visible platelet aggregation”, the Average bleeding time (tail bleeding in mice [5]) was 2.76 min and the Oral bioavailability [6] was 4-9%. The “Mice that formed no thrombi and remained patent during the entire experiment” value [7] was “Three of the 4”, the “Plasma concentration at 6 hrs, of the initial concentration” value [8] was less than 0.05% and the Clot stability ([9]; 200 mg/kg NAC single injection) was “recanalized completely; also recorded: more likely to be unstable and recanalize”. The “Flow after recanalization, of the initial flow” value ([9]; 200 mg/kg NAC single injection) was roughly 100%, the Clot stability ([9]; 400 mg/kg NAC 6 hrs prior to surgery, PBS immediately prior to crush injury) was “formed unstable thrombi” and the Occlusion ([9]; 400 mg/kg NAC I.V. single injection, N=3, 45 minutes of the experiment) was “no occlusion was observed; also recorded: completely prevented occlusion”. The Observations following administration ([9]; NAC I.V., single injection experiments) was “lower basal blood flow and initial labored breathing”, the Clot stability [9, 11] was “majority forming unstable thrombi” and the Time to clotting [9, 11] was no more than 10 min. The “Tissue at crush injury site” value [9, 11] was “more severe tissue damage and hemorrhage”.

For “VWF: VWF (Humate) added at 19 IU/mL to 10 mM NAC treated blood”, the “Increase in lag time of recovery condition vs control (shift of control curve)” value (human whole blood [10]; 10 mM NAC + 19 IU vWF) was 76 s and the “Occlusive thrombus formation after VWF addition” value (human whole blood [10]; 19 IU/mL VWF added to blood treated with 10 mM NAC) was “recover the ability to form rapid occlusive thrombi; also recorded: forms occlusive thrombi”.
